The source made the active and inactive calls.
Experiments:
[1] = Counterscreen for IDE inhibitors: Luminescence-based cell-based high throughput dose response assay to identify compounds that are cytotoxic to HEK cells. [Related pubchem assays: 434962 (Primary screen (IDE inhibitors in singlicate)), 449730 (Counterscreen (Cytotoxicity in triplicate)), 435028 (Confirmation (IDE inhibitors in triplicate)) …; format: functional; details: HEK293
Insulin-degrading enzyme = target: T1, Insulin-degrading enzyme (Homo sapiens, UniProt P14735); test: Dose Response: Fluorescence polarization-based cell-based high throughput dose response assay for inhibitors of insulin-degrading enzyme (IDE). [Related pubchem assays: 434962 (Primary screen (IDE inhibitors in singlicate)), 449730 (Counterscreen (Cytotoxicity in triplicate)), 435028 (Confirmation (IDE inhibitors in triplicate)), 434984 (Summary …; format: functional
T1 sequence (P14735 whole entry): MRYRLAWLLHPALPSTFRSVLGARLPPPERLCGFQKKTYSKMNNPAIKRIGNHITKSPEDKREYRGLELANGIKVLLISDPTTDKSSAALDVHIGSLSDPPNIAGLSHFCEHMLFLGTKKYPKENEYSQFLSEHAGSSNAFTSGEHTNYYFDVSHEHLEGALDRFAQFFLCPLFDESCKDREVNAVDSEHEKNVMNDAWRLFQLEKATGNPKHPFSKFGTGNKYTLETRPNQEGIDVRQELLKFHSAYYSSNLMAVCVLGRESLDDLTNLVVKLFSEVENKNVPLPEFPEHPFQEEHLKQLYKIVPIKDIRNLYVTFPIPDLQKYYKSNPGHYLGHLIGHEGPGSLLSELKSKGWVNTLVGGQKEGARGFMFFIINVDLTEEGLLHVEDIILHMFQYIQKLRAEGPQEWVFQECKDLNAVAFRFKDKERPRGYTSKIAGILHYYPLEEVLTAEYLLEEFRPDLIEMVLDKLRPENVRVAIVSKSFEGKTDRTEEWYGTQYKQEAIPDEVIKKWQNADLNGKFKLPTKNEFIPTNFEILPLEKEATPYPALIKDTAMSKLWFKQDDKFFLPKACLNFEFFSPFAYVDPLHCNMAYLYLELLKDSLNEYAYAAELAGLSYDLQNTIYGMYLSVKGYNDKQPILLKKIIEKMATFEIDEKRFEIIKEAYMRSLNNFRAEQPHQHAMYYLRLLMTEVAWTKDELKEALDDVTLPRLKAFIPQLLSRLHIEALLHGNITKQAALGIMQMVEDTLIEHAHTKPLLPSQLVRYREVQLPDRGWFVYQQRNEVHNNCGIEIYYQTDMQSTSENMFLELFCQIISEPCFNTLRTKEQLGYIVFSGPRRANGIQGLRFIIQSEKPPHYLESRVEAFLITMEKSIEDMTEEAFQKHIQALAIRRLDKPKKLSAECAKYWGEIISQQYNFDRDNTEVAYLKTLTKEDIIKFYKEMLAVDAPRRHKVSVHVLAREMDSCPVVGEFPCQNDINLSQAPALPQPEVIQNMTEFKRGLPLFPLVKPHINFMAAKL

[2] = target: T2, Mannose-6-phosphate isomerase (Homo sapiens, UniProt P34949); test: PMI enzyme inhibitors, confirmation, biochemical, fluorescence intensity (AID 1535)
T2 sequence (P34949 whole entry): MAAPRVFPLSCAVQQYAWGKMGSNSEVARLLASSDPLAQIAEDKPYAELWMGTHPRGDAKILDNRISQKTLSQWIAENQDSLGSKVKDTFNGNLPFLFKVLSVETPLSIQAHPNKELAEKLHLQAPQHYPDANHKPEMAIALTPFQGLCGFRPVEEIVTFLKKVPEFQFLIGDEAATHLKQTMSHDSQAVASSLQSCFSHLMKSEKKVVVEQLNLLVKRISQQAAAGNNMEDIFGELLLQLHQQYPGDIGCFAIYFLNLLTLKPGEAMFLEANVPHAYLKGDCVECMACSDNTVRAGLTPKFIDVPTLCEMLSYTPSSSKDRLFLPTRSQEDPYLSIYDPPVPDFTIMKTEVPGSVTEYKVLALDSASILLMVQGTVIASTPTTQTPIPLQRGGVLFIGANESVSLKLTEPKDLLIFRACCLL

[3] = target: DNA dC->dU-editing enzyme APOBEC-3A (Homo sapiens, UniProt P31941); test: APOBEC3A DNA deaminase inhibitors, dose response, biochemical (AID 504722); format: functional
Phosphomannomutase 2 = target: T3, Phosphomannomutase 2 (Homo sapiens, UniProt O15305); test: Counter screen SAR assay for PMM2 inhibitors via a fluorescence intensity assay. [Related pubchem assays (depositor defined):AID1545, AID1574]
T3 sequence (O15305 whole entry): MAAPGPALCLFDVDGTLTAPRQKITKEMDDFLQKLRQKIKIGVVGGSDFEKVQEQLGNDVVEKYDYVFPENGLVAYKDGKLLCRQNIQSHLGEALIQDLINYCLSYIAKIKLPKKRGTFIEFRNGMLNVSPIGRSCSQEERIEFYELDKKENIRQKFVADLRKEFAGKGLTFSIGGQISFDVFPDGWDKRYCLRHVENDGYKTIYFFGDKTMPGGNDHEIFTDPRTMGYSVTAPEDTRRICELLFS

[4] = target: Phosphoethanolamine/phosphocholine phosphatase (Homo sapiens, UniProt Q8TCT1); test: SAR assay for compounds that inhibit PHOSPHO1. [Related pubchem assays (depositor defined):AID1545, AID1565, AID1574]
[5] = target: DNA dC->dU-editing enzyme APOBEC-3G (Homo sapiens, UniProt Q9HC16); test: Dose Response confirmation of small molecule APOBEC3G DNA Deaminase Inhibitors via a fluorescence-based single-stranded DNA deaminase assay. [Related pubchem assays (depositor defined):AID493012, AID493028]; format: functional
[6] = target: T4, Alkaline phosphatase, tissue-nonspecific isozyme (Homo sapiens, UniProt P05186); test: human TNAP enzyme inhibitors, SAR follow-up, biochemical, luminescent, dose response (AID 1056)
T4 sequence (P05186 whole entry): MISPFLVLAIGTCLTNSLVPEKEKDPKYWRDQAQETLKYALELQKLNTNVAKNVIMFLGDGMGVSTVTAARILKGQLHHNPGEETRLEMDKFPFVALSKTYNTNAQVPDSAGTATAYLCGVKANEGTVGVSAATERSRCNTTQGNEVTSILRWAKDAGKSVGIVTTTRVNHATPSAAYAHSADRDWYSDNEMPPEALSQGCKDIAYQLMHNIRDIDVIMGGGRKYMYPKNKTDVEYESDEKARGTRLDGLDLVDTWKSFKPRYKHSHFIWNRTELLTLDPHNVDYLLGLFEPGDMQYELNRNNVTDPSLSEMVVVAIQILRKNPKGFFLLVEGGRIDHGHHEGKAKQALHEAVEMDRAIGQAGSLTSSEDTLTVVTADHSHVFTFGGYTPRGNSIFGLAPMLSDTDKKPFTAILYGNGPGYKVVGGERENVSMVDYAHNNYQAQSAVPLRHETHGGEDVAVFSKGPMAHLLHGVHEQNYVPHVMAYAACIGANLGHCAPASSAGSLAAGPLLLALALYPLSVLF

[7] = target: T5, Rac GTPase-activating protein 1 (Homo sapiens, UniProt Q9H0H5); test: MgcRacGAP GTPase-activating activity inhibitors, confirmation, biochemical, ADP Hunter fluorescence, primary and confirmatory (AID 624330); format: functional
T5 sequence (Q9H0H5 whole entry): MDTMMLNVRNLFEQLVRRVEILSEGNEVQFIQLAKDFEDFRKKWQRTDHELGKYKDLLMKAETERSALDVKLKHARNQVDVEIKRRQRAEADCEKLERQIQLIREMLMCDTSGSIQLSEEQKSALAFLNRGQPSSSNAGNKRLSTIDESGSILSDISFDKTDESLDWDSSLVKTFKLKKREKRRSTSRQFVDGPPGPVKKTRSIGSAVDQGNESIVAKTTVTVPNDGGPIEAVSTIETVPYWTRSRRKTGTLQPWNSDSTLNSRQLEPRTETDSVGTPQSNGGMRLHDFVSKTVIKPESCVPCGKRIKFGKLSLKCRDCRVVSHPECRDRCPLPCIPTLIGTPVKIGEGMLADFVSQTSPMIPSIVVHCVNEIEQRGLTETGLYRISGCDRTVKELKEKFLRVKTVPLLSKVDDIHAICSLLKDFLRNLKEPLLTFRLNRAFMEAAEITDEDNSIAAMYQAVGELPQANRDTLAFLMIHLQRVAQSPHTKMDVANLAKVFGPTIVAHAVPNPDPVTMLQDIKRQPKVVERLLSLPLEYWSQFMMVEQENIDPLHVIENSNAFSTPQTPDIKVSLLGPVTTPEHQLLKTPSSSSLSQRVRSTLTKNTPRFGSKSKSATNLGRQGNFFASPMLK

Sequence of DNA dC->dU-editing enzyme APOBEC-3G (Q9HC16 whole entry): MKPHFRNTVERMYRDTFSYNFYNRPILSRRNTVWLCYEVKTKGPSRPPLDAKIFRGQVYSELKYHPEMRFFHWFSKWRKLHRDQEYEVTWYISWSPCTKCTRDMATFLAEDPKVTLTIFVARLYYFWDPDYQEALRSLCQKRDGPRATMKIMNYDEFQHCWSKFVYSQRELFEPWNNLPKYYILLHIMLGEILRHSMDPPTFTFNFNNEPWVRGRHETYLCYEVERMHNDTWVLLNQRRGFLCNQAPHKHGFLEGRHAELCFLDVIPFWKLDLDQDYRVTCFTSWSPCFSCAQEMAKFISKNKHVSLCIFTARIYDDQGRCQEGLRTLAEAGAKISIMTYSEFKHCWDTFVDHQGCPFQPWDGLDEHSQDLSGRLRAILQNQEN
Sequence of Phosphoethanolamine/phosphocholine phosphatase (Q8TCT1 whole entry): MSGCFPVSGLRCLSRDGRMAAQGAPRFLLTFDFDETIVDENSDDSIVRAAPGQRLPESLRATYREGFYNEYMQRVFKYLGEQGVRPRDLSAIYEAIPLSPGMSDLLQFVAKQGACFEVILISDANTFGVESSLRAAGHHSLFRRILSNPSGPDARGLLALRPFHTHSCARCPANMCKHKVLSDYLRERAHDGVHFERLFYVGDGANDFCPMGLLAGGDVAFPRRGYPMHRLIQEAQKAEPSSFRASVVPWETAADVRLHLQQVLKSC
Sequence of DNA dC->dU-editing enzyme APOBEC-3A (P31941 whole entry): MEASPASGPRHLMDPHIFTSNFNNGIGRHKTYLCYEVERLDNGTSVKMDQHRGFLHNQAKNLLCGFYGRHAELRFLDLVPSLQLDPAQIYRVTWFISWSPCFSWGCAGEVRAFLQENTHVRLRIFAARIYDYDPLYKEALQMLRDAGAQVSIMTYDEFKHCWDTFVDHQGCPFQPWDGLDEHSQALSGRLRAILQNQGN

O=C(O)c1cccc(-n2sc3ccccc3c2=O)c1
IC50 [1]: 36.7 µM (not active)
IC50 (Insulin-degrading enzyme): 2.38 µM (active)
IC50 [2]: 3.29 µM (active)
IC50 [3]: > 100 µM (inactive)
IC50 (Phosphomannomutase 2): 52.5 µM (active)
IC50 [4]: 1.14 µM (inactive)
IC50 [5]: 4.85 µM (active)
IC50 [6]: > 100 µM (inactive)
IC50 [7]: 30.1 µM (active)
